These are literature values, as cited in patent US8962638B2, “Piperidine inhibitors of janus kinase 3” (Auspex Pharmaceuticals, Inc., priority 2009, dated 2015).

The conditions of data set [1]: humans, 14C labeled CP-690550, oral.

Structures are written as SMILES.

With `C[C@@H]1CCN(C(=O)CC#N)C[C@@H]1N(C)c1ncnc2[nH]ccc12` [CP-690550, 4-methyl-3-(methyl-7H-pyrrolo[2,3-d]pyrimidin-4-ylamino)-beta-oxo-(3R,4R)-1-piperidinepropanenitrile], the “mean terminal phase half-life of unchanged CP-690550” value in data set [1] is given as “approximately 3.2 hours”. In addition, the “renal excretion of unchanged drug, share of clearance” value (in vivo) is given as roughly 30%. The “non-renal share of clearance” value (via hepatic metabolism by CYP3A4/5 and CYP2C19) is “approximately 70%”.
